Data published in patent US20250281480A1, “PHARMACEUTICAL DRY POWDER INHALATION FORMULATION” (Bayer Aktiengesellschaft, priority 2021, published 2025).

System: cGMP
Assay: Phase I, healthy male subjects, inhaled once daily for 14 days: cGMP
Assay type: in vivo, human
Conditions: for cGMP changes from baseline: 1000 μg inhaled once daily for 14 days, n = 17; for cGMP concntration over time (mean +/− standard deviation): 1000 μg inhaled once daily, 14 days
Experimental: Healthy white male subjects, aged 18 to 45 years and with a body mass index (BMI) above/equal 18.5 and below/equal 29.9 kg/m2 were treated in a clinical pharmacological phase I study for 14 days with inhaled once daily doses of 1000 μg (nominal dose) or Placebo of dry powder of example 4. […] Drug activity/target engagement in healthy men was controlled in the healthy subjects by analysing blood samples for cGMP.

## O=C(O)c1ccc(CCN(CCc2ccccc2OCc2ccc(-c3ccc(C(F)(F)F)cc3)cc2Cl)[C@H]2CCCc3nc(C(=O)O)ccc32)cc1 [Example 4, (5S)—{[2-(4-Carboxyphenyl)ethyl][2-(2-{[3-chloro-4′-(trifluoromethyl)biphenyl-4-yl]methoxy}phenyl)-ethyl]amino}-5,6,7,8-tetrahydroquinoline-2-carboxylic Acid as Monohydrate I]
0 D 02 H 00 M
  cGMP changes from baseline: 4840 pmol/L
  cGMP concntration over time (mean +/− standard deviation): 9170 pmol/L
0 D 04 H 00 M
  cGMP changes from baseline: 7290 pmol/L
  cGMP concntration over time (mean +/− standard deviation): 11600 pmol/L
0 D 06 H 00 M
  cGMP changes from baseline: 9950 pmol/L
  cGMP concntration over time (mean +/− standard deviation): 14300 pmol/L
0 D 08 H 00 M
  cGMP changes from baseline: 10600 pmol/L
  cGMP concntration over time (mean +/− standard deviation): 14900 pmol/L
0 D 12 H 00 M
  cGMP changes from baseline: 7530 pmol/L
  cGMP concntration over time (mean +/− standard deviation): 11800 pmol/L
0 D 15 H 00 M
  cGMP changes from baseline: 6740 pmol/L
  cGMP concntration over time (mean +/− standard deviation): 11100 pmol/L
1 D 00 H 00 M
  cGMP changes from baseline: 2980 pmol/L
  cGMP concntration over time (mean +/− standard deviation): 7310 pmol/L
2 D 00 H 00 M
  cGMP changes from baseline: 4550 pmol/L
  cGMP concntration over time (mean +/− standard deviation): 8880 pmol/L
2 D 03 H 00 M
  cGMP changes from baseline: 13000 pmol/L
  cGMP concntration over time (mean +/− standard deviation): 17300 pmol/L
2 D 08 H 00 M
  cGMP changes from baseline: 16400 pmol/L
  cGMP concntration over time (mean +/− standard deviation): 20800 pmol/L
2 D 12 H 00 M
  cGMP changes from baseline: 12600 pmol/L
  cGMP concntration over time (mean +/− standard deviation): 16900 pmol/L
3 D 00 H 00 M (trough prior inhalation)
  cGMP changes from baseline: 5160 pmol/L
4 D 00 H 00 M (trough prior inhalation)
  cGMP changes from baseline: 6360 pmol/L
5 D 00 H 00 M (trough prior inhalation)
  cGMP changes from baseline: 5920 pmol/L
6 D 00 H 00 M
  cGMP changes from baseline: 5090 pmol/L
  cGMP concntration over time (mean +/− standard deviation): 9420 pmol/L
6 D 03 H 00 M
  cGMP changes from baseline: 13400 pmol/L
  cGMP concntration over time (mean +/− standard deviation): 17700 pmol/L
6 D 08 H 00 M
  cGMP changes from baseline: 20100 pmol/L
  cGMP concntration over time (mean +/− standard deviation): 24500 pmol/L
6 D 12 H 00 M
  cGMP changes from baseline: 13900 pmol/L
  cGMP concntration over time (mean +/− standard deviation): 18200 pmol/L
7 D 00 H 00 M (trough prior inhalation)
  cGMP changes from baseline: 6180 pmol/L
8 D 00 H 00 M (trough prior inhalation)
  cGMP changes from baseline: 6200 pmol/L
9 D 00 H 00 M (trough prior inhalation)
  cGMP changes from baseline: 6580 pmol/L
10 D 00 H 00 M
  cGMP changes from baseline: 6450 pmol/L
  cGMP concntration over time (mean +/− standard deviation): 10800 pmol/L
10 D 03 H 00 M
  cGMP changes from baseline: 12700 pmol/L
  cGMP concntration over time (mean +/− standard deviation): 17100 pmol/L
10 D 08 H 00 M
  cGMP changes from baseline: 17500 pmol/L
  cGMP concntration over time (mean +/− standard deviation): 21900 pmol/L
10 D 12 H 00 M
  cGMP changes from baseline: 13000 pmol/L
  cGMP concntration over time (mean +/− standard deviation): 17300 pmol/L
11 D 00 H 00 M (trough prior inhalation)
  cGMP changes from baseline: 6940 pmol/L
12 D 00 H 00 M (trough prior inhalation)
  cGMP changes from baseline: 8060 pmol/L
12 D 22 H 00 M
  cGMP changes from baseline: 6950 pmol/L
  cGMP concntration over time (mean +/− standard deviation): 11300 pmol/L
13 D 02 H 00 M (after last inhalation)
  cGMP changes from baseline: 9120 pmol/L
13 D 04 H 00 M (after last inhalation)
  cGMP changes from baseline: 12900 pmol/L
13 D 06 H 00 M (after last inhalation)
  cGMP changes from baseline: 17000 pmol/L
13 D 08 H 00 M (after last inhalation)
  cGMP changes from baseline: 17700 pmol/L
13 D 12 H 00 M (after last inhalation)
  cGMP changes from baseline: 12900 pmol/L
13 D 15 H 00 M (after last inhalation)
  cGMP changes from baseline: 12100 pmol/L
14 D 00 H 00 M (after last inhalation)
  cGMP changes from baseline: 5410 pmol/L
15 D 00 H 00 M (after last inhalation)
  cGMP changes from baseline: 2520 pmol/L
15 D 12 H 00 M (after last inhalation)
  cGMP changes from baseline: 3040 pmol/L
16 D 00 H 00 M (after last inhalation)
  cGMP changes from baseline: 2000 pmol/L
16 D 12 H 00 M (after last inhalation)
  cGMP changes from baseline: 2410 pmol/L
17 D 00 H 00 M (after last inhalation)
  cGMP changes from baseline: 400 pmol/L
20 D 00 H 00 M (after last inhalation)
  cGMP changes from baseline: 1220 pmol/L
FOLLOW-UP
  cGMP changes from baseline: 1520 pmol/L
  cGMP concntration over time (mean +/− standard deviation): 5850 pmol/L
−0 D 09 H 00 M (pretreatment day)
  cGMP changes from baseline: 224 pmol/L
−0 D 12 H 00 M (pretreatment day)
  cGMP changes from baseline: 306 pmol/L
−0 D 16 H 00 M (pretreatment day)
  cGMP changes from baseline: 676 pmol/L
−0 D 18 H 00 M (pretreatment day)
  cGMP changes from baseline: −252.9 +/− 1345.9
−0 D 20 H 00 M (pretreatment day)
  cGMP changes from baseline: −952.9 +/− 1984.7
−0 D 22 H 00 M (pretreatment day)
  cGMP changes from baseline: −100.0 +/− 1403.1
3 D 00 H 00 M
  cGMP concntration over time (mean +/− standard deviation): 9490 pmol/L
4 D 00 H 00 M
  cGMP concntration over time (mean +/− standard deviation): 10700 pmol/L
5 D 00 H 00 M
  cGMP concntration over time (mean +/− standard deviation): 10300 pmol/L
7 D 00 H 00 M
  cGMP concntration over time (mean +/− standard deviation): 10500 pmol/L
8 D 00 H 00 M
  cGMP concntration over time (mean +/− standard deviation): 10500 pmol/L
9 D 00 H 00 M
  cGMP concntration over time (mean +/− standard deviation): 10900 pmol/L
11 D 00 H 00 M
  cGMP concntration over time (mean +/− standard deviation): 11300 pmol/L
12 D 00 H 00 M
  cGMP concntration over time (mean +/− standard deviation): 12400 pmol/L
13 D 02 H 00 M
  cGMP concntration over time (mean +/− standard deviation): 13400 pmol/L
13 D 04 H 00 M
  cGMP concntration over time (mean +/− standard deviation): 17300 pmol/L
13 D 06 H 00 M
  cGMP concntration over time (mean +/− standard deviation): 21400 pmol/L
13 D 08 H 00 M
  cGMP concntration over time (mean +/− standard deviation): 22000 pmol/L
13 D 12 H 00 M
  cGMP concntration over time (mean +/− standard deviation): 17200 pmol/L
13 D 15 H 00 M
  cGMP concntration over time (mean +/− standard deviation): 16400 pmol/L
14 D 00 H 00 M
  cGMP concntration over time (mean +/− standard deviation): 9740 pmol/L
15 D 00 H 00 M
  cGMP concntration over time (mean +/− standard deviation): 6850 pmol/L
15 D 12 H 00 M
  cGMP concntration over time (mean +/− standard deviation): 7370 pmol/L
16 D 00 H 00 M
  cGMP concntration over time (mean +/− standard deviation): 6330 pmol/L
16 D 12 H 00 M
  cGMP concntration over time (mean +/− standard deviation): 6740 pmol/L
17 D 00 H 00 M
  cGMP concntration over time (mean +/− standard deviation): 4730 pmol/L
20 D 00 H 00 M
  cGMP concntration over time (mean +/− standard deviation): 5520 pmol/L
−0 D 02 H 00 M
  cGMP concntration over time (mean +/− standard deviation): 4330 pmol/L
−0 D 09 H 00 M
  cGMP concntration over time (mean +/− standard deviation): 5490 pmol/L
−0 D 12 H 00 M
  cGMP concntration over time (mean +/− standard deviation): 5570 pmol/L
−0 D 16 H 00 M
  cGMP concntration over time (mean +/− standard deviation): 5940 pmol/L
−0 D 18 H 00 M
  cGMP concntration over time (mean +/− standard deviation): 5010 pmol/L
−0 D 20 H 00 M
  cGMP concntration over time (mean +/− standard deviation): 4310 pmol/L
−0 D 22 H 00 M
  cGMP concntration over time (mean +/− standard deviation): 5160 pmol/L
−1 D 02 H 00 M
  cGMP concntration over time (mean +/− standard deviation): 5260 pmol/L
1000 μg once daily inhalation
  steady state of cGMP concentration reached after: ≤ 11 days
